Test results reported in US12637703B2, “Compositions and methods for detection of oxidizable analytes” (President and Fellows of Harvard College, priority 2019, dated 2026).

Key:
[1] = biological target: T1, horseradish peroxidase (HRP) (Armoracia rusticana, UniProt P00433); assay: Screening of NIR dye library for HRP substrates (hydrogen peroxide-dependent loss of fluorescence); type: biochemical; conditions: for enzymatic oxidation by HRP, positive controls of the library screening: known HRP substrates, homovanillic acid 0.99 mM, HRP 0.10 U/mL, 10 min, Amplex Red 30 min, room temperature; for oxidation by HRP (loss of fluorescence) at different hydrogen peroxide concentrations: NIR dye 2.5 μM, HRP 105 mU/mL, phosphate buffer 50 mM pH 7.5; for oxidation by HRP (loss of fluorescence) at different hydrogen peroxide concentrations / hydrogen peroxide sensing profile (loss in relative fluorescence intensity): 10 min room temperature; for hydrogen peroxide sensing profile (loss in relative fluorescence intensity): different dye concentrations, HRP-containing buffer pH 7.5
T1 construct: purchased Thermo Fisher Scientific A22188
T1 sequence (P00433 31-338): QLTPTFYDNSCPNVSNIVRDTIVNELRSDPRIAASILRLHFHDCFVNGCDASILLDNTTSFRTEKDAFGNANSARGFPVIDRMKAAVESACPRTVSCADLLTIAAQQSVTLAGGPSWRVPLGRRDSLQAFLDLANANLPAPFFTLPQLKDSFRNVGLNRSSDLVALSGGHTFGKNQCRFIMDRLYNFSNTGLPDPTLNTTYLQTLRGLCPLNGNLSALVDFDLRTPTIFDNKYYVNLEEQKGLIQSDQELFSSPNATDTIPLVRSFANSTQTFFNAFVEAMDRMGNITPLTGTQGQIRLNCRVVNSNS
Description: FIGS. 2A-2C are related to screening of near-infrared (NIR) dye library for HRP substrates. NIR dye concentration: 2.5 μM; HRP concentration: 105 mU/mL; buffer composition: phosphate buffer 50 mM at pH 7.5; 10 min incubation time at room temperature. All results as means+SD (n=3).
FIG. 2E is a graph showing the relative fluorescence intensity of a homovanillic acid-containing solution in the presence of hydrogen peroxide and HRP, therefore evaluating hydrogen peroxide sensing with homovanillic acid (a known substrate of HRP) and HRP. HRP catalyzes the dimerization of homovanillic acid to a fluorescent product in the presence of hydrogen peroxide. HRP concentration: 0.10 U/mL; homovanillic acid: 0.99 mM; λex 312 nm; λem 430 nm; incubation time 10 min at room temperature. All results as mean±SD (n=3).
FIG. 2F is a graph showing the relative fluorescence intensity of an Amplex Red®-containing solution in the presence of hydrogen peroxide and HRP, therefore evaluating hydrogen peroxide sensing with Amplex Red® (a known substrate of HRP) and HRP. HRP catalyzes the oxidation of Amplex Red® to the fluorescent product resorufin in the presence of hydrogen peroxide. Excitation/emission wavelengths: λex 530 nm; λem 590 nm; incubation time 30 min at room temperature. Assay conducted in accordance to manufacturer's instructions. All results as mean±SD (n=3).
FIGS. 3B-3E are related to hydrogen peroxide sensing using HRP-mediated S7 oxidation. NIR dye concentration unless stated: 10 μM (FIG. 3C), 7.5 μM (FIG. 3D); HRP concentration: 105 mU/mL (FIG. 3B); buffer composition: phosphate buffer 50 mM at pH 7.5; 10 (FIGS. 3B, 3D) or 30 min (FIG. 3E) incubation time at room temperature. […] All results as means+SD (n=3).
(§1) NIR dyes were dissolved in water (sulfo-cyanine dyes, Lumiprobe, Hannover, Germany, and all investigated IRDyes except for IRDye 800RS, LI-COR Biosciences, Lincoln, NE) or dimethyl sulfoxide (Sigma Aldrich, St. Louis, MO; cyanine dyes, Lumiprobe, and IRDye 80016, LI-COR Biosciences). 10 μL of dye solution (final 2.5 μM) were added to 100 uL of HRP solution (final 105 mU/mL) and hydrogen peroxide standards (both from Amplex™ Red Hydrogen Peroxide/Peroxidase Assay Kit A22188, Thermo Fisher Scientific, Waltham, MA) in sodium chloride-containing phosphate buffer (Sigma Aldrich) 50 mM at pH 7.5 at 300 mOsmol/kg and protected from light. After 10 min at room temperature, the fluorescence intensity was determined by a plate reader (BioTek NEO2, BioTek, Winooski, VT) at the fluorescence excitation and emission wavelength provided by the manufacturer.
To determine the absorbance spectra of S7, 10 μL of dye solution (final 7.5 μM) were added to 100 μL of HRP solution (final 105 mU/mL) and hydrogen peroxide standards in isotonic phosphate buffer 50 mM at pH 7.5. After 15 min, the absorbance spectra were recorded by a plate reader (BioTek NEO2).

[2] = Fluorescence of dyes with hydrogen peroxide in HRP-free buffer; type: physicochemical; conditions: 400-fold molar excess of hydrogen peroxide
Description: as §1, with “([…]” for “(final 2.5 μM) were added to 100 uL of HRP solution (final 105 mU/mL) and hydrogen peroxide standards (both from Amplex™ Red Hydrogen”

[3] = Superoxide testing (SOTS-1 as superoxide radical source); type: physicochemical; conditions: 100-fold excess of superoxide radical (SOTS-1); 30 min room temperature; pH 7.5
Description: FIG. 3E is a graph showing the relative fluorescence intensity of several NIR dyes and the superoxide-sensitive dye DHE (positive control) at different concentrations of the superoxide radical source SOTS-1 (E).
Superoxide was generated in accordance with the literature. In brief, SOTS-1 (Cayman Chemicals, Ann Arbor, MI) was dissolved in dimethylformamide (Sigma Aldrich) and added to a near-infrared fluorescent dye-containing ([…]; DHE concentration 10 μM) isotonic phosphate buffer 50 mM at pH 7.5 ([…]) and protected from light. After 30 min at room temperature, the fluorescence intensity was determined by a plate reader (BioTek NEO2) at the fluorescence excitation and emission wavelength provided by the manufacturer.

Compound | enzymatic oxidation by HRP, positive controls of the library screening [1] | oxidation by HRP (loss of fluorescence) at different hydrogen peroxide concentrations [1] | hydrogen peroxide sensing profile (loss in relative fluorescence intensity) [1] | fluorescence properties upon exposure to hydrogen peroxide without HRP [2] | fluorescence emission in the presence of superoxide radical [3]
CC(=O)N1c2ccc(O)cc2Oc2cc(O)ccc21 [Amplex Red®] | enzymatically oxidized in a hydrogen peroxide-dependent manner |  |  |  | 
CC1(C)C(/C=C/C=C/C=C/C=C2\N(CCCCS(=O)(=O)O)c3ccc4ccccc4c3C2(C)C)=[N+](CCCCS(=O)(=O)[O-])c2ccc3ccccc3c21 [ICG, indocyanine green] |  | oxidized by HRP in a hydrogen peroxide concentration-dependent manner | linear hydrogen peroxide sensing profile | preserved their fluorescence properties | 
COc1cc(CC(=O)O)ccc1O [homovanillic acid] | enzymatically oxidized in a hydrogen peroxide-dependent manner |  |  |  | 
CN1/C(=C/C=C/C=C/C2=[N+](CCCCCC(=O)O)c3ccc(S(=O)(=O)O)cc3C2(C)C)C(C)(C)c2cc(S(=O)(=O)O)ccc21 [sulfo-cyanine 5] |  |  |  |  | preserved their fluorescence emission
sulfo-cyanine 7 [S7] |  | oxidized by HRP in a hydrogen peroxide concentration-dependent manner | followed a sigmoid curve | preserved their fluorescence properties | preserved their fluorescence emission
